Assay results: patent US20050272700A1, “Topical treatment and prevention of human papilloma virus (HPV) infection” (priority 2004, published 2005)

Key:
[1] = Stability testing of I3C solutions and formulations by HPLC; assay type: physicochemical; details: for amount of the active remaining: aqueous medium, 5° C.; for loss of potency: 2 weeks
Description: Stability testing of the formulations was performed by HPLC analysis. The area of the peak representing I3C or a derivative thereof was monitored.

[2] = test system: DMBA-induced mammary tumors; details: Wattenberg and Loub 1978; cited from earlier work

| Compound | amount of the active remaining ([1]; pH 6.0, 2 weeks) | amount of the active remaining ([1]; pH 8.0, 2 weeks) | loss of potency ([1]; same aqueous composition at pH 7.4 without hydroxypropyl-β-cyclodextrin) | loss of potency ([1]; solution at pH 7.4 with added hydroxypropyl-β-cyclodextrin) | reduction of DMBA-induced mammary tumors [2] |
| --- | --- | --- | --- | --- | --- |
| OCc1c[nH]c2ccccc12 [Composition I3C, indole-3-carbinol] | completely decomposed | about 93% | 16% | 1.3% | – |
| c1ccc2c(Cc3c[nH]c4ccccc34)c[nH]c2c1 [DIM, 3,3′-diindoylmethane] | – | – | – | – | somewhat effective |
